From US20070026080A1, “Manufacturing process for tigecycline” (Wyeth, priority 2005, published 2007)

Experiment: Strength and degradation profile of tigecycline 20 mg/mL bulk solutions by reversed phase HPLC (effect of temperature, time, pH, dissolved oxygen; Runs A to O)
Assay type: physicochemical
Settings: 20 mg/mL
Protocol: The contents of the sample vials are dissolved in diluent. The sample solution is diluted, if necessary, and chromatographed on a reversed phase column using gradient elution. Impurities are determined by comparing the impurity peak areas in the sample preparation chromatogram to the average area of tigecycline peaks in the standard preparation chromatograms obtained concomitantly.
Chromatographic Column—Length about 15 cm, inside diameter about 4.6 mm, packed with Inertsil ODS2, 5 μm size particles or equivalent.
Detector—Ultraviolet spectrophotometric detector capable of operating at 248 nm with a sensitivity of about 0.5 absorbance units full scale.
The results of additional studies to investigate the effect of processing parameters such as temperature, time, and dissolved oxygen content on the purity profile of tigecycline solutions using the following materials, methods and procedures are presented in Tables A to O.
The experiments were run in plastic glove bags under normal laboratory light conditions. Plastic glove boxes will be used to control the headspace of the beakers. The batch size was 200 mL. • 1. Prepare the glove bag with a mixture of nitrogen and air to achieve an oxygen level in the solution as per the design. • 2. Place the jacketed beaker on the magnetic stirrer. Connect it to the cooler. Set the cooler to the desired set point. • 3. Add 200 mL of SWFI in to the beaker. Allow equilibrating. Measure the temperature and oxygen content. When it reaches the desired condition, add accurately weighed API and mix until dissolved. If necessary use spatula to aid dissolution. For pH adjustments, use 4 mL of either 0.1N NaOH or 0.1N HCl and 196 mL of WFI for manufacture. • 4. After complete dissolution, Transfer about 5.5 mL of Solution in vials and stopper them. These vials will be stoppered at the appropriate headspace conditions. Place the vials in appropriate temperature conditions. • 5. Sample the vials at 1, 4, 8, 10, 12 and 24 hours. Send the samples for analysis. Freeze the 10, 12 and 24 samples at −20° C. for analysis the following day. • 6. Measure pH and record color of the solution at each time point. Results
The 1-hour samples were taken directly from the beakers. Samples for later time points were collected in stoppered vials processed in the atmosphere of the bag in order to simulate the headspace conditions then placed in water baths or refrigerator to maintain there respective temperature conditions. This was done to maintain safety in the lab. Disposable plastic glove bags require constant flow of a mixture of nitrogen and air to maintain headspace oxygen level that will result in the desired dissolved oxygen (DO) content in the sample. The pH of samples was measured at each sample points.
Strength and degradation profile was analyzed by HPLC as described above. […] Degradation was slightly higher at higher temperature condition.

[1] = Run #F, 2° C., hours 1,4,8,12,24 at r5-r9, 8 h after preparation
[2] = Run #F, 2° C., hours 1,4,8,12,24 at r5-r9, 12 h after preparation
[3] = Run #F, 2° C., hours 1,4,8,12,24 at r5-r9, 24 h after preparation
[4] = Run #G, 5° C., hours 1,4,8,12,24 at r6-r10, after 4 hours
[5] = Run #G, 5° C., hours 1,4,8,12,24 at r6-r10, after 24 hours
[6] = Run #G, 5° C., hours 1,4,8,12,24 at r16-r20, after 1 hours
[7] = Run #G, 5° C., hours 1,4,8,12,24 at r16-r20, after 4 hours
[8] = Run #G, 5° C., hours 1,4,8,12,24 at r16-r20, after 8 hours
[9] = Run #G, 5° C., hours 1,4,8,12,24 at r16-r20, after 12 hours
[10] = Run #G, 5° C., hours 1,4,8,12,24 at r16-r20, after 24 hours
[11] = Run #H, 5° C., pH 7.9, Oxygen 1.0 mg/L, hours 1,4,8,10,12,24 at r6-r11
[12] = Run #H, 5° C., pH 7.9, Oxygen 1.0 mg/L, hours 1,4,8,10,12,24 at r6-r11, 1 h
[13] = Run #H, 5° C., pH 7.9, Oxygen 1.0 mg/L, hours 1,4,8,10,12,24 at r6-r11, 4 h
[14] = Run #H, 5° C., pH 7.9, Oxygen 1.0 mg/L, hours 1,4,8,10,12,24 at r6-r11, 10 h
[15] = Run #H, 5° C., pH 7.9, Oxygen 1.0 mg/L, hours 1,4,8,10,12,24 at r6-r11, 12 h
[16] = Run #H, 5° C., pH 7.9, Oxygen 1.0 mg/L, hours 1,4,8,10,12,24 at r6-r11, 24 h
[17] = Run #H, 5° C., pH 7.9, Oxygen 1.0 mg/L, hours 1,4,8,10,12,24 at r17-r22, 1 h
[18] = Run #H, 5° C., pH 7.9, Oxygen 1.0 mg/L, hours 1,4,8,10,12,24 at r17-r22, 4 h
[19] = Run #H, 5° C., pH 7.9, Oxygen 1.0 mg/L, hours 1,4,8,10,12,24 at r17-r22, 8 h
[20] = Run #H, 5° C., pH 7.9, Oxygen 1.0 mg/L, hours 1,4,8,10,12,24 at r17-r22, 10 h
[21] = Run #H, 5° C., pH 7.9, Oxygen 1.0 mg/L, hours 1,4,8,10,12,24 at r17-r22, 12 h
[22] = Run #H, 5° C., pH 7.9, Oxygen 1.0 mg/L, hours 1,4,8,10,12,24 at r17-r22, 24 h
[23] = Run #I, 5° C., pH 7.9, Oxygen 1.0 mg/L, hours 1,4,8,10,12,24 at r6-r11, 1 h
[24] = Run #I, 5° C., pH 7.9, Oxygen 1.0 mg/L, hours 1,4,8,10,12,24 at r6-r11, 4 h
[25] = Run #I, 5° C., pH 7.9, Oxygen 1.0 mg/L, hours 1,4,8,10,12,24 at r6-r11, 8 h
[26] = Run #I, 5° C., pH 7.9, Oxygen 1.0 mg/L, hours 1,4,8,10,12,24 at r6-r11, 10 h
[27] = Run #I, 5° C., pH 7.9, Oxygen 1.0 mg/L, hours 1,4,8,10,12,24 at r6-r11, 12 h

SMILES: CN(C)c1cc(NC(=O)CNC(C)(C)C)c(O)c2c1C[C@H]1C[C@H]3[C@H](N(C)C)C(O)=C(C(N)=O)C(=O)[C@@]3(O)C(O)=C1C2=O [Tigecycline]
- RRT 1.45 [1]: 0.09%
- RRT 1.85 MW = 597 [1]: 0.08%
- Total [1]: 1.00%
- RRT 0.74 Epimer [2]: 0.18%
- RRT 1.45 [2]: 0.08%
- Total [2]: 1.07%
- RRT 0.74 Epimer [3]: 0.19%
- Total [3]: 1.43%
- Strength (Run #G, 5° C., Oxygen = 1.0 mg/mL, hours 1,4,8,12,24 at r6-r10, after 1 hours): 18.577 mg/mL
- Strength (Run #G, 5° C., Oxygen = 1.0 mg/mL, hours 1,4,8,12,24 at r6-r10, after 4 hours): 18.694 mg/mL
- Strength (Run #G, 5° C., Oxygen = 1.0 mg/mL, hours 1,4,8,12,24 at r6-r10, after 8 hours): 18.487 mg/mL
- Strength (Run #G, 5° C., Oxygen = 1.0 mg/mL, hours 1,4,8,12,24 at r6-r10, after 12 hours): 18.507 mg/mL
- Strength (Run #G, 5° C., Oxygen = 1.0 mg/mL, hours 1,4,8,12,24 at r6-r10, after 24 hours): 18.587 mg/mL
- RRT 1.67 MW = 556 (Run #G, 5° C., Oxygen = 1.0 mg/mL, hours 1,4,8,12,24 at r16-r20, after 1 hours): 0.08%
- RRT 1.67 MW = 556 (Run #G, 5° C., Oxygen = 1.0 mg/mL, hours 1,4,8,12,24 at r16-r20, after 4 hours): 0.14%
- RRT 1.67 MW = 556 (Run #G, 5° C., Oxygen = 1.0 mg/mL, hours 1,4,8,12,24 at r16-r20, after 8 hours): 0.17%
- RRT 1.67 MW = 556 (Run #G, 5° C., Oxygen = 1.0 mg/mL, hours 1,4,8,12,24 at r16-r20, after 12 hours): 0.20%
- RRT 1.67 MW = 556 (Run #G, 5° C., Oxygen = 1.0 mg/mL, hours 1,4,8,12,24 at r16-r20, after 24 hours): 0.23%
- RRT 0.74 Epimer (Run #G, 5° C., hours 1,4,8,12,24 at r6-r10, after 1 hours): 0.16%
- RRT 0.58 [4]: 0.07%
- RRT 0.74 Epimer [4]: 0.17%
- RRT 0.74 Epimer (Run #G, 5° C., hours 1,4,8,12,24 at r6-r10, after 8 hours): 0.18%
- RRT 0.74 Epimer (Run #G, 5° C., hours 1,4,8,12,24 at r6-r10, after 12 hours): 0.20%
- RRT 0.58 [5]: 0.08%
- RRT 0.74 Epimer [5]: 0.21%
- RRT 1.45 [6]: 0.08%
- RRT 1.64 Mino [6]: 0.11%
- RRT 1.85 MW = 597 [6]: 0.08%
- Total [6]: 0.58%
- RRT 1.64 Mino [7]: 0.07%
- Total [7]: 0.78%
- RRT 1.45 [8]: 0.07%
- RRT 1.85 MW = 597 [8]: 0.09%
- Total [8]: 1.12%
- RRT 1.45 [9]: 0.09%
- Total [9]: 1.34%
- RRT 1.85 MW = 597 [10]: 0.10%
- Total [10]: 2.09%
- RRT 0.58 [11]: 0.09%
- RRT 0.64 9-Amino [11]: BRL (BRL means below reporting limit (meaning less than 0.05% of tigecycline peak))
- RRT 0.74 Epimer [12]: 0.19%
- Strength [12]: 19.457 mg/mL
- RRT 0.74 Epimer [13]: 0.20%
- Strength [13]: 19.441 mg/mL
- Strength (Run #H, 5° C., pH 7.9, Oxygen 1.0 mg/L, hours 1,4,8,10,12,24 at r6-r11, 8 h): 19.361 mg/mL
- RRT 0.74 Epimer [14]: 0.25%
- Strength [14]: 19.447 mg/mL
- RRT 0.74 Epimer [15]: 0.27%
- Strength [15]: 20.119 mg/mL
- RRT 0.74 Epimer [16]: 0.23%
- Strength [16]: 19.319 mg/mL
- RRT 0.78 MW = 557 (Run #H, 5° C., pH 7.9, Oxygen 1.0 mg/L, hours 1,4,8,10,12,24 at r17-r22): BRL (BRL means below reporting limit (meaning less than 0.05% of tigecycline peak))
- RRT 1.45 [17]: 0.09%
- RRT 1.64 Mino [17]: 0.12%
- RRT 1.85 MW = 597 [17]: 0.07%
- Total [17]: 0.60%
- RRT 1.45 [18]: 0.07%
- RRT 1.64 Mino [18]: 0.09%
- RRT 1.85 MW = 597 [18]: 0.08%
- Total [18]: 0.70%
- RRT 1.64 Mino [19]: 0.10%
- Total [19]: 0.66%
- RRT 1.64 Mino [20]: 0.11%
- Total [20]: 0.90%
- RRT 1.85 MW = 597 [21]: 0.09%
- Total [21]: 0.87%
- RRT 1.45 [22]: 0.05%
- RRT 1.64 Mino [22]: 0.15%
- RRT 1.85 MW = 597 [22]: 0.10%
- Total [22]: 1.03%
- RRT 0.64 9-Amino (Run #I, 5° C., pH 7.9, Oxygen 1.0 mg/L, hours 1,4,8,10,12,24 at r6-r11): BRL (BRL means below reporting limit (meaning less than 0.05% of tigecycline peak))
- RRT 0.58 [23]: 0.08%
- RRT 0.74 Epimer [23]: 0.19%
- Strength [23]: 19.263 mg/mL
- RRT 0.58 [24]: 0.09%
- RRT 0.74 Epimer [24]: 0.21%
- Strength [24]: 19.361 mg/mL
- RRT 0.58 [25]: 0.06%
- RRT 0.74 Epimer [25]: 0.18%
- Strength [25]: 19.131 mg/mL
- RRT 0.74 Epimer [26]: 0.29%
- Strength [26]: 19.204 mg/mL
- RRT 0.58 [27]: 0.07%
- RRT 0.74 Epimer [27]: 0.26%
